Patent US20160122821A1, “GENETIC MARKERS OF ANTIPSYCHOTIC RESPONSE” (SUREGENE, LLC, priority 2013, published 2016)

Tested on: Caucasian patients with schizophrenia (CATIE)
Assay: Genetic association (linear regression, additive model) of SNP alleles with MMRM-modelled change in PANSS Total Score under antipsychotic treatment, CATIE trial
Assay type: in vivo, human

SMILES: OCCOCCN1CCN(C2=Nc3ccccc3Sc3ccccc32)CC1 [Quetiapine, quetiapine]
- Beta (PANSS) (AKAP9 rs35759833 allele C, P 4.46E−02): −4.62 PANSS
- Beta (PANSS) (ARSB rs25414 allele C, P 2.37E−03): −9.37 PANSS
- Beta (PANSS) (ATP2B2 rs11712897 allele C, P 2.77E−02): −3.54 PANSS
- Beta (PANSS) (C13orf35 rs4907727 allele C, P 2.16E−02): −3.58 PANSS
- Beta (PANSS) (C15orf41 rs8027206 allele A, P 2.90E−02): −3.40 PANSS
- Beta (PANSS) (CA10 rs7210687 allele C, P 2.52E−02): −3.24 PANSS
- Beta (PANSS) (CA10 rs17607202 allele C, P 3.87E−02): −3.10 PANSS
- Beta (PANSS) (CACNA2D3 rs9861155 allele A, P 2.07E−02): −4.28 PANSS
- Beta (PANSS) (CCBE1 rs12606241 allele G, P 3.38E−02): −4.12 PANSS
- Beta (PANSS) (CDH13 rs3935908 allele G, P 4.47E−02): −2.89 PANSS
- Beta (PANSS) (CDH13 rs8048616 allele C, P 2.03E−02): −3.49 PANSS
- Beta (PANSS) (CERK rs78424 allele A, P 2.86E−02): −3.60 PANSS
- Beta (PANSS) (CHRM3 rs4659552 allele A, P 3.50E−02): −3.02 PANSS
- Beta (PANSS) (CLSTN2 rs10513102 allele C, P 4.28E−02): −4.05 PANSS
- Beta (PANSS) (CNTN6 rs7646412 allele A, P 2.28E−02): −4.64 PANSS
- Beta (PANSS) (CNTNAP2 rs10240221 allele A, P 3.63E−02): −3.22 PANSS
- Beta (PANSS) (COL22A1 rs4311658 allele G, P 2.37E−03): −5.04 PANSS
- Beta (PANSS) (COL22A1 rs4442151 allele C, P 2.37E−03): −5.04 PANSS
- Beta (PANSS) (CPLX2 rs2243404 allele C, P 2.25E−02): −4.30 PANSS
- Beta (PANSS) (CSMD1 rs2616996 allele G, P 4.49E−02): −3.44 PANSS
- Beta (PANSS) (CTNNA2 rs10201249 allele A, P 2.33E−02): −4.77 PANSS
- Beta (PANSS) (CTNNA2 rs10520244 allele C, P 2.12E−02): −6.07 PANSS
- Beta (PANSS) (CTNNA2 rs17018593 allele A, P 2.95E−02): −4.25 PANSS
- Beta (PANSS) (DENND4C rs2666797 allele C, P 2.72E−02): −3.79 PANSS
- Beta (PANSS) (DGKD rs838717 allele A, P 2.74E−02): −3.38 PANSS
- Beta (PANSS) (DLC1 rs12677920 allele A, P 3.27E−02): −3.35 PANSS
- Beta (PANSS) (DLG2 rs7101982 allele C, P 4.47E−02): −2.93 PANSS
- Beta (PANSS) (DYNC1I1 rs17638044 allele C, P 2.39E−03): −8.72 PANSS
- Beta (PANSS) (ERG rs10854385 allele A, P 3.76E−02): −4.00 PANSS
- Beta (PANSS) (ESRRG rs9441544 allele C, P 2.40E−02): −4.04 PANSS
- Beta (PANSS) (ETV1 rs41505 allele C, P 2.62E−03): −4.08 PANSS
- Beta (PANSS) (EXOC2 rs1747599 allele G, P 4.44E−02): −3.71 PANSS
- Beta (PANSS) (EXOC2 rs17135234 allele A, P 3.55E−02): −4.93 PANSS
- Beta (PANSS) (FBXL2 rs6772365 allele C, P 4.07E−02): −3.45 PANSS
- Beta (PANSS) (FHIT rs12636662 allele A, P 2.18E−03): −4.62 PANSS
- Beta (PANSS) (FLJ38109 rs11167681 allele C, P 3.82E−02): −3.35 PANSS
- Beta (PANSS) (FMN2 rs1020709 allele C, P 3.77E−02): −3.38 PANSS
- Beta (PANSS) (FMNL2 rs1155779 allele C, P 2.20E−02): −3.41 PANSS
- Beta (PANSS) (FOXP1 rs831440 allele C, P 3.37E−02): −3.67 PANSS
- Beta (PANSS) (GALNTL4 rs4909979 allele C, P 2.49E−02): −5.30 PANSS
- Beta (PANSS) (GNG2 rs1343870 allele G, P 4.37E−02): −3.12 PANSS
- Beta (PANSS) (GPR116 rs9395218 allele C, P 3.77E−02): −4.73 PANSS
- Beta (PANSS) (GRID2 rs1433667 allele C, P 2.84E−03): −4.87 PANSS
- Beta (PANSS) (GRID2 rs1836115 allele A, P 3.01E−02): −3.53 PANSS
- Beta (PANSS) (GRID2 rs13103135 allele C, P 4.20E−02): −3.66 PANSS
- Beta (PANSS) (GRM8 rs17865066 allele A, P 2.61E−02): −10.79 PANSS
- Beta (PANSS) (GRM8 rs17865434 allele C, P 2.61E−02): −10.79 PANSS
- Beta (PANSS) (HAAO rs3755540 allele C, P 2.01E−02): −3.79 PANSS
- Beta (PANSS) (INMT-FAM188B;FAM188B rs10230286 allele A, P 2.09E−02): −3.51 PANSS
- Beta (PANSS) (INMT-FAM188B;FAM188B rs11972565 allele A, P 2.70E−02): −3.53 PANSS
- Beta (PANSS) (ITPR2 rs11048710 allele A, P 3.74E−02): −3.75 PANSS
- Beta (PANSS) (IYD rs2076286 allele A, P 4.24E−02): −6.69 PANSS
- Beta (PANSS) (JAG1 rs6074164 allele A, P 3.54E−02): −4.59 PANSS
- Beta (PANSS) (KCNB1 rs34467662 allele C, P 2.39E−02): −9.06 PANSS
- Beta (PANSS) (KCNIP4 rs10516363 allele A, P 3.20E−02): −3.43 PANSS
- Beta (PANSS) (KCNQ1 rs422314 allele C, P 3.83E−02): −3.18 PANSS
- Beta (PANSS) (KCNQ3 rs17659416 allele A, P 2.67E−02): −4.39 PANSS
- Beta (PANSS) (LDB2 rs3805320 allele A, P 3.90E−02): −3.16 PANSS
- Beta (PANSS) (LRFN2 rs2078460 allele A, P 3.06E−02): −3.67 PANSS
- Beta (PANSS) (LRP1B rs2380943 allele C, P 1.96E−02): −3.47 PANSS
- Beta (PANSS) (LRP1B rs34488772 allele A, P 2.80E−02): −8.41 PANSS
- Beta (PANSS) (MCPH1 rs2515509 allele C, P 2.44E−02): −5.16 PANSS
- Beta (PANSS) (MSR1 rs6981231 allele C, P 2.17E−02): −7.67 PANSS
- Beta (PANSS) (MYO10 rs26317 allele A, P 2.25E−02): −3.80 PANSS
- Beta (PANSS) (NCAM2 rs12483671 allele A, P 4.38E−02): −3.47 PANSS
- Beta (PANSS) (NLGN1 rs2861338 allele A, P 2.69E−02): −3.51 PANSS
- Beta (PANSS) (NPAS3 rs927763 allele G, P 3.26E−02): −4.45 PANSS
- Beta (PANSS) (NRG3 rs12767532 allele G, P 2.93E−02): −3.66 PANSS
- Beta (PANSS) (OPCML rs3018407 allele A, P 2.60E−02): −3.48 PANSS
- Beta (PANSS) (OPCML rs3019855 allele C, P 3.16E−02): −3.40 PANSS
- Beta (PANSS) (OPCML rs3920986 allele G, P 2.33E−02): −3.72 PANSS
- Beta (PANSS) (PARD3B rs7589114 allele C, P 4.08E−02): −3.18 PANSS
- Beta (PANSS) (PCDH15 rs2384470 allele C, P 2.33E−03): −5.21 PANSS
- Beta (PANSS) (PIKFYVE rs17699982 allele A, P 4.51E−02): −4.12 PANSS
- Beta (PANSS) (PLCG2 rs4889447 allele C, P 3.48E−02): −5.77 PANSS
- Beta (PANSS) (PLXDC2 rs989767 allele A, P 4.48E−02): −3.31 PANSS
- Beta (PANSS) (PRKG1 rs1904018 allele C, P 2.81E−02): −3.09 PANSS
- Beta (PANSS) (PTPRT rs876523 allele C, P 2.06E−02): −3.45 PANSS
- Beta (PANSS) (RGS7 rs2678780 allele A, P 2.47E−03): −4.56 PANSS
- Beta (PANSS) (RGS7 rs10802943 allele C, P 3.52E−02): −2.99 PANSS
- Beta (PANSS) (RIMBP2 rs12305517 allele C, P 2.16E−02): −5.62 PANSS
- Beta (PANSS) (ROBO2 rs1470571 allele C, P 3.50E−02): −3.69 PANSS
- Beta (PANSS) (RPRD1A rs4799835 allele A, P 4.31E−02): −3.76 PANSS
- Beta (PANSS) (SAMD4A rs8011374 allele C, P 3.60E−02): −3.17 PANSS
- Beta (PANSS) (SDK2 rs4969114 allele A, P 2.22E−02): −3.33 PANSS
- Beta (PANSS) (SGCZ rs12155874 allele A, P 3.89E−02): −3.08 PANSS
- Beta (PANSS) (SHC3 rs10122011 allele C, P 2.47E−02): −3.43 PANSS
- Beta (PANSS) (SLC35F3 rs12087906 allele G, P 3.30E−02): −9.04 PANSS
- Beta (PANSS) (SORBS1 rs4572071 allele A, P 3.25E−02): −3.66 PANSS
- Beta (PANSS) (SORBS1 rs4918911 allele C, P 4.32E−02): −3.34 PANSS
- Beta (PANSS) (ST8SIA1 rs4606528 allele C, P 3.26E−02): −3.84 PANSS
- Beta (PANSS) (STX11 rs3734228 allele C, P 3.21E−02): −9.67 PANSS
- Beta (PANSS) (STX11 rs6912580 allele C, P 3.21E−02): −9.67 PANSS
- Beta (PANSS) (TGIF1 rs12606927 allele A, P 4.02E−02): −3.49 PANSS
- Beta (PANSS) (TMC1 rs10869183 allele T, P 2.41E−02): −3.43 PANSS
- Beta (PANSS) (TMTC2 rs7974520 allele A, P 3.49E−02): −3.64 PANSS
- Beta (PANSS) (TRIM9 rs882413 allele C, P 2.00E−02): −4.35 PANSS
- Beta (PANSS) (TSC1 rs1050700 allele A, P 4.13E−02): −3.29 PANSS
- Beta (PANSS) (USP10 rs2012708 allele C, P 3.86E−02): −3.05 PANSS
- Beta (PANSS) (WWOX rs7203676 allele C, P 2.23E−02): −3.87 PANSS
